Laboratory results as given in US8193225B2, “Isoxazole amides, derivatives and methods of chemical induction of neurogenesis” (priority 2006, dated 2012).

Assays:
P19CL6 cells = assay: neuronal differentiation of P19CL6 cells; format: cell-based, mouse; details: 4 d cultures
Experimental: Neural stem cell culture, in vitro differentiation, and CaMK inhibitor studies. The hippocampal neural stem/progenitor (NSC) line used in this study (HCN cells) were originally isolated from adult (8-10 wks old) female Fisher 344 rats and have been characterized previously (Gage et al., 1995; Palmer et al., 1997). HCN cells were cultured in DMEM:F12 (Omega Scientific) with N2 supplement (Invitrogen) and basic fibroblast growth factor (20 ng/ml FGF-2) (PeproTech). The mouse whole brain neural stem/progenitors (MWB) were derived from adult (8-10 wks old) C57BL/6 mice that have been characterized previously (Ray and Gage, 2006). The P19CL6 cells is a sub-line of P19EC cells, originally generated by the late Dr. Habara-Ohkubo (Habara-Ohkubo, 1996), were grown in MEM-α (Invitrogen) containing 10% fetal bovine serum (Omega). HCN cells or MWB neural progenitors were trypsinized and plated into N2 medium (Invitrogen) containing FGF-2 (HCN cells) or FGF-2/EGF/heparin (MWB) overnight, and switched to fresh N2 medium without FGF-2 and Isx-9 (20 μM for HCN cells and 5 μM for MWB) was added for 4 d. To test if Isx-9 could block competing astrocyte or oligodendrocyte differentiation, standard gliogenic conditions were used as described previously (Hsieh et al., 2004). […]

HCN cells = assay: in vitro neuronal differentiation of HCN cells (morphology, Tuj1 staining); format: cell-based, rat
[1] = test system: human CD133(+) brain tumor stem cells (BTSCs); assay: growth, secondary neurospheres and BrdU uptake of BTSCs; format: cell-based
Experimental: CD133(+) brain tumor stem cells (BTSCs) from an explanted human tumor specimen were treated with EGF/FGF (FIG. 10A) or Isx-9 (20 μM) (FIG. 10B) for 7 days before returning to EGF/FGF (FIG. 10C) or EGF/FGF plus Isx-9 conditions (FIG. 10D) for an additional 2 days.
The number and size of neurospheres observed in 7-day pretreated BTSCs with DMSO (vehicle), EGF/FGF, or Isx-9 that were dissociated and re-plated to form secondary neurospheres (1000 cells/well) under various conditions is shown in FIG. 10F.

MEF2 = assay: gel shift assay of MEF2 binding to MEF2 response element of NR1 gene; format: cell-based, rat; details: versus vehicle-treated cells
Experimental: Protein blotting, immunoprecipitation, and gel shift assay. For protein blotting analysis, whole cell lysates were prepared from HCN cells using RIPA buffer (Tris-HCl, 50 mM, pH 7.4; NP-40, 1%; Na-deoxycholate, 0.25%; NaCl, 150 mM; EDTA, 1 mM; PMSF, 1 mM; aprotinin, leupeptin, pepstatin, 1 mg/ml; Na3VO4, 1 mM; NaF, 1 mM). For nuclear and cytoplasmic extracts, HCNs were lysed in hypotonic buffer (Hepes, 10 mM, pH 8; MgCl2, 1.5 mM; KCl, 10 mM; DTT, 1 mM). Nuclei was then isolated and resuspended in the same buffer with NaCl, 420 mM; EDTA, 0.2 mM; glycerol, 25%; NP-40, 1%; PMSF, 1 mM; aprotinin, leupeptin, pepstatin, 1 mg/ml. Protein concentration in centrifugation-clarified cell lysates were measured by the BCA Protein Assay Kit (Pierce) and equal amounts of protein were separated on a 4-12% SDS-PAGE and transferred to Hybond PVDF (Amersham Biosciences). Protein blots were done using the NuPage gel and transfer system with 4-20% Tris-Bis gels (Invitrogen). […]

O=C(NC1CC1)c1cc(-c2cccs2)on1 [Isx-9, N-cyclopropyl-5-(thiophen-2-yl)isoxazole-3-carboxamide] was tested, and the “neuronal differentiation of P19CL6 / P19 embryonal carcinoma cells” value (P19CL6 cells) was “promotes neuronal differentiation”, the “neuronal differentiation of HCN cells/NPCs” value (HCN cells; 20 μM, 4 d cultures) was “promotes robust neuronal differentiation” and the “Tuj1+ differentiation” value (HCN cells; HCN cells, by 4 d) was over 50%. For the same molecule, the “cell attachment and differentiation of BTSCs after growth factor challenge” value ([1]; 7-day exposure, 20 μM) was “promotes an irreversible state of cell attachment and differentiation”, the “number and size of secondary neurospheres” value ([1]; 7-day pre-treatment, compared to EGF/FGF pre-treatment) was “mediates a decrease in the average number and size of each secondary neurosphere” and the “DNA synthesis/proliferation (BrdU uptake) of BTSCs” value ([1]; 7 days pre-treatment, EGF/FGF added back for 24 hours) was “leads to decreased DNA synthesis/proliferation”. For the same molecule, the “total MEF2 binding to MEF2 response element within the NR1 gene” value (MEF2) was “similar”.
